# Data taken from US20100297017A1, “Method for Synthesizing and Using Pegylated Peptide-Photoactive Chromophore Conjugates and Micellular Formulations Thereof” (priority 2008, published 2010).
# Where two headings read alike, the source gives them in different places.
# What was measured:
# [1] = Solubility in aqueous solutions
# Text: Therefore, two different approaches for modifying the sPPp conjugate were investigated to improve its in vivo targetability.
# [2] = tested on: A-431 human epidermoid carcinoma tumor xenografts; test: Time-coursed fluorescence imaging in tumor xenograft model with ROI analysis; assay type: in vivo, athymic nude mice
# Procedure: ROI measurements were done using ImageJ software (Rasband 1997-2007). For FIGS. 2A and 2B, image exposure times were 0.65 seconds, whereas image exposure times in FIG. 2C were 4 seconds in order to compensate for the smaller injected dosage of PPa content.
# To assess the in vivo delivery characteristics of sPPp conjugate formulations, time-coursed fluorescence imaging studies were performed in a tumor xenograft model grown in athymic nude mice. Tumor xenografts were grown subcutaneously in the left upper chest region using the A-431 human epidermoid carcinoma cell line (American Type Culture Collection, Manassas, Va.), which is ideal for EGFR-targeting studies given that these cells overexpress ˜1×10^6-2.6×10^6 EGFR/cell (Haigler, et al. (1978) Proc. Natl. Acad. Sci. USA 75:3317-21; Mendelsohn (1997) Clin. Cancer Res. 3:2703-7). When tumor sizes reached greater than ˜100 mm^3, mice were imaged pre-injection, and then free PPa or sPPp conjugate formulations that had been sterile filtered through a 0.2 micron membrane were injected via tail vein or retro-orbitally at dosages ranging from ˜10 to ˜80 nmoles PPa content per mouse (mice weighed ˜20 g) in a single bolus volume of approximately 200 microliters. A series of post-injection images were then taken over a period of time until mouse fluorescence levels approached pre-injection baseline levels. Images were acquired of the ventral surface of the animals using a custom built surface-weighted fluorescence imager with a 670 nm laser for excitation and a 685 nm long-pass emission filter for detection (Pogue, et al. (2004) Technol. Cancer Res. Treat. 3:15-21). […]
# As a quantitative measure of the tumor contrast generated by the surfactant-solubilized free PPa solution and the different sPPp conjugate formulations, region of interest (ROI) mean pixel values of the tumor area and control adjacent chest area were measured from the imaging data sets.
# [3] = tested on: A-431 human tumor xenografts; test: Preliminary tumor growth delay studies after phototherapy (Example 3, FIG. 3); assay type: in vivo, mice
# Procedure: Mice were implanted with A-431 tumor xenografts and were administered phototherapy when their tumor sizes reached approximately 150 mm^3. Tumors were then regularly measured to determine the time it took for the tumors to reach four times their initial treatment size. To allow for easier comparisons, tumor growth delay data sets have been aligned so that the 0-day time point corresponds to a tumor volume of 150 mm^3. Diamond, control mice (no PPa or sPPp conjugate; no light), lumped data set, n=6. Squares, mice treated with 60 nmoles surfactant-solubilized free PPa in 2% ethanol/1% TWEEN 80/PBS for a ˜16 hour incubation and treated with 100 J/(cm*cm) light, n=4. Triangles, mice treated with 60 nmoles partially PEG2(20 kDa)ylated (˜63 molar %) sPPp conjugate in PBS for a ˜16 hour incubation and treated with 500 J/(cm*cm) light, n=3.
# Preliminary tumor growth delay studies comparing the in vivo phototherapeutic effects of the partially PEG2(20 kDa)ylated sPPp conjugate to the gold standard surfactant-solubilized free PPa solution are shown in FIG. 3. A-431 human tumor xenografts were grown in mice as previously described, and when tumors reached ˜150 mm^3, mice were injected via the tail vein or retro-orbitally with 60 to 80 nmoles PPa content in a bolus volume of approximately 200 microliters. Sixteen hours post-injection, the entire tumor surface along with a 1-2 mm margin of skin around the tumor edge was uniformly irradiated with the expanded beam of a 670 nm laser at an incident fluence rate of ˜50 mW/cm^2. Six mice that received no injections and no irradiations served as a control group. Tumor growth delays resulting from the tumoricidal effects of the phototherapeutic treatments were determined with respect to the control group. For control mice, it took roughly 8.1 days for tumors to quadruple in size from 150 mm^3 to 600 mm^3, and for mice treated with 60 nmoles surfactant-solubilized free PPa and 100 J/cm^2 light, it took only slightly longer, 12.6±2.4 days (i.e., a tumor growth delay of ˜4.5 days compared to the control group). […]
# [4] = tested on: EGFR-overexpressing A-431 tumor xenograft; test: Tumor growth delay photodynamic therapy (PDT) studies, single and repeat treatment (Example 4, FIGS. 4 and 5); assay type: in vivo, athymic NCr nu/nu mice; details: single PDT, 60 nmole PPa content per 20 g, 100 J/cm^2 at ~16 hours post-injection
# Procedure: All formulations were administered at a dosage equivalent to 60 nmole PPa content per 20 gram body weight in a 200 μl bolus injection via the tail vein (or via retro-orbital injection when tail vein injections were not feasible). A 670 nm diode laser light dose of 100 J/cm^2, delivered at ˜50 mW/cm^2, was given at ˜16 hours post-injection over an area covering the entire tumor surface as well as a 2 to 3 mm border extending beyond the edge of the tumor. The tumor model was the EGFR-overexpressing A-431 tumor xenograft grown in athymic NCr nu/nu mice (5-week old mice from the National Cancer Institute at Frederick, Md.). Data series were plotted so that the time at which each tumor reached ˜150 mm^3 corresponds to 0 days; i.e., the approximate time at which the PDT light dose was administered.
# Control experiments were also performed, which included injecting mice with the sPPp formulations but not exposing them to light.
# [5] = 60 nmoles, 100 J/cm^2 light, 16 hours post-injection
Compound,solubility in aqueous solutions [1],solubility in aqueous solutions ([1]; aqueous solutions),"peak tumor area to adjacent chest area mean pixel value ratio (tumor contrast) ([2]; 60 nmoles PPa in 2% ethanol/1% TWEEN 80/PBS, at ~16 hours post-injection, FIG. 2A)","clearance from the circulation ([2]; A-431 tumor-bearing mice, single bolus injection, fluorescence imaging)",tumor fluorescence at time of peak tumor contrast ([2]; FIG. 2),"time for tumors to quadruple in size from 150 mm^3 to 600 mm^3 [3, 5] [days]","tumor growth delay compared to the control group [3, 5] [days]",lethality ([3]; irradiations performed immediately after injection),delay in tumor growth compared to untreated control mice [4]
C=CC1=C(C)c2cc3[nH]c(c4c5nc(cc6[nH]c(cc1n2)c(C)c6CC)C(C)=C5C(=O)C4)C(CCC(=O)NC(CC(=O)O)C(=O)NCCCCC(N)C(=O)NCCOCCOCCOCCOCCOCCOCCOCCOCCOCCOCCOCCOCCC(=O)NCCOCCOCCOCCOCCOCCOCCOCCOCCOCCOCCOCCOCCC(N)=O)C3C (stereo not drawn) [sPPp],highly soluble and readily dissolved in aqueous solutions,,,,,,,,
pyropheophorbide-a [free PPa],,required potentially harmful solubilizers to prevent the formation of large insoluble aggregates,~1.5,cleared very rapidly from the circulation via the hepatobiliary system,already approaching pre-injection fluorescence levels,12.6 ± 2.4,~4.5,very high incidence of lethality,no significant delay in tumor growth
